Laboratory results published in patent US20250263376A1, “(E)-N-CINNAMOYLAMINOALKANOLS WITH MELANOGENESIS INHIBITORY ACTIVITY” (Uniwersytet Jagiellonski, priority 2024, published 2025).

Columns and labels:
[1] = Lipophilicity coefficient RM0 by reversed phase thin layer chromatography; assay type: physicochemical; details: RP-18 TLC, methanol/phosphate buffer pH=7.4
Method: Confirmation of the identity and purity of the obtained compounds consisted in the registration and interpretation of 1H NMR and 13C NMR spectra (the spectra were recorded using an ECZR 500 MHZ (JEOL) series FT-NMR spectrophotometer), as well as the registration and interpretation of LC-MS spectra (the spectra were recorded using Acquita UPLC system (Waters) coupled with a Waters TQD mass spectrometer). The melting point was measured using the open capillary method in the IA9300 device (Electrothermal). The lipophilicity coefficient RM0 was determined by reversed phase thin layer chromatography. In the study, aluminum plates 20×20 cm covered with modified silica gel RP-18 F254 (Merck) were used as the solid phase. The mobile phase consisted of solutions of methanol and 100 mM phosphate buffer (pH=7.4), characterized by a variable methanol content ranging from 95 to 65% (v/v). The tested compounds were dissolved in methanol to obtain solutions with a concentration of 1 mg/mL. Then, […] of the solutions prepared in this way were transferred to the starting line on aluminum plates, which were then placed in chromatographic chambers previously saturated with mobile phase vapors for at least 1 hour. All activities, including the development of chromatograms, were carried out at room temperature. After developing the chromatograms to approximately 1-2 cm from the end of the plate, the plates were dried and then the distance traveled by the tested compounds was visualized under UV light (λ=254 nm). The experiment was performed in duplicate for the specified conditions. For all samples, Rf was calculated according to the formula Rf=a/b, where a—the distance traveled by the tested compound, b—the distance traveled by the mobile phase. Then, the RM parameter was calculated for all samples according to the formula RM=log (1/Rf−1), obtaining a linear relationship between the RM values and the methanol concentration in the mobile phase. The log P coefficient was also calculated using the following computer programs: ACD/ChemSketch 2020.1.2 and ChemDraw 20.0.0.41.

[2] = tested on: B16-F10 murine melanoma cell line; experiment: Cytotoxicity (MTT) in B16-F10 murine melanoma cells; assay type: cell-based; details: 48 h
Method: Cytotoxicity Assessment in the B16-F10 Murine Melanoma Cell Line (ATTC CRL-6745)—Preliminary Safety Assessment for Subsequent Studies
In order to determine safe doses of compounds for testing the inhibition of melanogenesis in a murine melanoma cell line, cytotoxicity tests were performed. Cytotoxicity was determined by the colorimetric method using MTT ([3-(4,5-dimethyl-2-thiazolyl)-2,5-diphenyl-2H-tetrazolium bromide, Sigma M5655). For this purpose, cells were transferred to 96-well plates in an amount of 5000/well. After 24 h of culture in an incubator in F10-Ham medium with 1% FBS, the tested compounds at various concentrations were added to the wells together with fresh medium. DMSO was added to the medium in a negative control. The MTT test was performed after further culture for 48 h. Then the medium was removed and the formed formazan crystals were dissolved in DMSO. The absorbance was measured at 570 nm in a plate reader and the result was compared to the control (DMSO), which was 100%. The percentage of viability was calculated using the formula: [AT/AC*100], where AT is the absorbance of the test sample, AC—absorbance of the control sample.

[3] = molecular target: T1, tyrosinase from mushroom (Agaricus bisporus, UniProt C7FF04); experiment: Inhibition of commercial mushroom tyrosinase, substrate L-tyrosine; assay type: biochemical; details: read-out: Tyrosinase inhibition with L-tyrosine [%]
T1 sequence (C7FF04 2-392): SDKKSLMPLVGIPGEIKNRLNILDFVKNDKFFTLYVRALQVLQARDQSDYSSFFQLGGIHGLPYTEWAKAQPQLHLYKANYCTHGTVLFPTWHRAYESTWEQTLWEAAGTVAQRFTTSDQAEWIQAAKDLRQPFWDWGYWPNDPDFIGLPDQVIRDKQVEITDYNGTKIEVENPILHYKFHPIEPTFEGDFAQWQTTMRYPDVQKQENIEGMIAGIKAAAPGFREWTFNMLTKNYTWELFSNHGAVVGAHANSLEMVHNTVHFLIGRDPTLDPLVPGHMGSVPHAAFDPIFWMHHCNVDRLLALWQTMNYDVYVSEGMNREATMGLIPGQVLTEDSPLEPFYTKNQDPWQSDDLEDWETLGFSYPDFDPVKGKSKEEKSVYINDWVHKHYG
T1 sequence (G1K3P4 entry or part of it, further chain): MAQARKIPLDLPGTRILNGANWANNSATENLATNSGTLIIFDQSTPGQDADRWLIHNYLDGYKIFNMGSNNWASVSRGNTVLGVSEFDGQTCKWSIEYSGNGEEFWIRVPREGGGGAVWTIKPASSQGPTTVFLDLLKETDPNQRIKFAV
Method: (§1) Studies on the Inhibition of the Activity of Commercial Tyrosinase from Mushroom (Sigma: T3824)
(§2) The following substrates were used for the enzymatic reaction: L-tyrosine and L-3,4-dihyroxyphenylalanine (L-DOPA). Both substrates were used in independent experiments. According to the literature, the use of L-DOPA enables the assessment of tyrosinase diphenolase activity, and L-tyrosine—the tyrosinase monophenolase activity. The determinations were performed in 96-well plates, in each well there was placed: 170 μL or 127.5 μL of 50 mM phosphate buffer (pH=6.8) with tyrosinase (1U/well or 3U/well) and 10 μL of a solution of the tested compound in DMSO (the final concentration in the well was 500 μM, 250 μM or 125 μM). The negative control used 10 u L of pure solvent (DMSO). To initiate the reaction, an appropriate substrate was added: L-tyrosine (62.5 μL of solution in phosphate buffer) or L-DOPA (20 μL of solution in phosphate buffer). After a 25-minute incubation, the absorbance was measured at 475 nm using a microplate reader. The percentage of inhibition of tyrosinase activity was calculated using the formula: [(AC−AT)/[…], where AC—is the absorbance of the negative control, AT—is the absorbance of the sample containing the tested compound.

[4] = molecular target: T1, tyrosinase from mushroom; experiment: Inhibition of commercial mushroom tyrosinase, substrate L-DOPA; assay type: biochemical; details: read-out: Tyrosinase inhibition with L-DOPA [%]
Method: as §1, §2

SMILES	RM0 [1]	Cytotoxicity study in B16F10 cells, % viability ([2]; 150 μM)	Cytotoxicity study in B16F10 cells, % viability ([2]; 200 μM)	Cytotoxicity study in B16F10 cells, % viability ([2]; 250 μM)	inhibition at 500 µM [3]	inhibition at 500 µM [4]	inhibition at 500 µM ([3]; 500 μM)	inhibition at 500 µM ([4]; 500 μM)	inhibition at 250 µM [4]
O=C(/C=C/c1ccccc1)NCCCCCO [Compound A-133, (2E)-N-(5-hydroxypentyl)-3-phenylprop-2-enamide]	2.15	101.7%	94.9%	95.6%	58.6 ± 4.58%	48 ± 1.83%			
O=C(/C=C/c1ccccc1)NCCCCCCO [H-425/21, (E)-N-(6-hydroxyhexyl)cinnamic acid amide]	2.40	109.2%	98.4%	86.9%			44.6 ± 5.99%	34.6 ± 2.46%	
O=C(/C=C/c1ccc(Cl)cc1)NCCCO [H-330/21, (2E)-3-(4-chlorophenyl)-N-(3-hydroxypropyl)prop-2-enamide]	1.94	78.6%	82.9%	83.9%			82.49 ± 0.65%	55.3 ± 1.39%	
Cc1ccc(/C=C/C(=O)NCCCCCO)cc1 [H-415/21, (2E)-N-(5-hydroxypentyl)-3-(4-methylphenyl)prop-2-enamide]	2.49	85.2%	90.3%	75.7%	25 ± 5.67%	30.4 ± 0.88%			
O=C(/C=C/c1ccc(Cl)cc1)NCCCCCO [Compound A-111, (2E)-3-(4-chlorophenyl)-N-(5-hydroxypentyl)prop-2-enamide]	2.79	88.2%	95.6%	89.7%	89 ± 0.98%				59.9 ± 1.56%
O=C(/C=C/c1ccc(Cl)cc1)NCCO [H-427/21, (2E)-3-(4-chlorophenyl)-N-(2-hydroxyethyl)prop-2-enamide]	1.93	73.7%	80.2%	77.8%			67.5 ± 2.66%	55.8 ± 0.77%	
